# Test results: US9802960B2 (MILLENNIUM PHARMACEUTICALS, INC., priority 2014, dated 2017)
# Target: Human VPS34 (Homo sapiens (Human), UniProt Q8NEB9)
# Assay: Human VPS34 enzyme assay (Adapta TR-FRET)
# Assay type: biochemical
# Conditions: IC50 range class
# Chain of Human VPS34 (Q8NEB9 whole entry): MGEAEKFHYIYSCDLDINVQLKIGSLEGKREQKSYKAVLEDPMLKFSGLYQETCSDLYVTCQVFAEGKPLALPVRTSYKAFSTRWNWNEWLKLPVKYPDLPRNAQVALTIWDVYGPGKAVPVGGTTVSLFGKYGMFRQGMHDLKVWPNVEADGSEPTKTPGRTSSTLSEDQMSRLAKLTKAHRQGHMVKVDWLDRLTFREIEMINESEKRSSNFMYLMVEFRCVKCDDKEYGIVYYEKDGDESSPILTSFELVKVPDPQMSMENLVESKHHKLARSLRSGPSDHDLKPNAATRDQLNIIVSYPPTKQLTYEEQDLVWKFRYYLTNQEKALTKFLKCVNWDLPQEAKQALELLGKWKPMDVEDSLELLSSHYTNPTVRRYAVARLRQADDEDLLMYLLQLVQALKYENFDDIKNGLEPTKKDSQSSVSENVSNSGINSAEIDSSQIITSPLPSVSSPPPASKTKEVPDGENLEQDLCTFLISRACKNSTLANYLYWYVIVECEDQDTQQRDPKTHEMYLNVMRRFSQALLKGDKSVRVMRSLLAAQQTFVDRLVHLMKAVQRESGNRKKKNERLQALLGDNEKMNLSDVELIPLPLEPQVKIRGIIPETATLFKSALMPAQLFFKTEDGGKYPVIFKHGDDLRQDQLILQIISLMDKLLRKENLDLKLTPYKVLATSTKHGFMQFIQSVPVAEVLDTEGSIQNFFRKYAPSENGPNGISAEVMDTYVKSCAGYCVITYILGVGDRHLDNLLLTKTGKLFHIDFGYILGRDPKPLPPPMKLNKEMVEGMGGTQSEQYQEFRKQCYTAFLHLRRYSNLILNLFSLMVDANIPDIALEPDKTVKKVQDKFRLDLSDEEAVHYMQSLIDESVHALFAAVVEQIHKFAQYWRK
row,IC50 [nM],Compound
1,10 to 50,"CC(=O)Nc1cc(-c2cnc(C)c(NS(=O)(=O)c3nccn3C)c2)ccn1 [Compound I-92, N-(6-methyl-5-{[(1-methyl-1H-imidazol-2-yl)sulfonyl]amino}-3,4′-bipyridin-2′-yl)acetamide]"

# Same assay, conditions: compound concentration 1.11 μM
row,Percent Inhibition [%],Compound
1,>99,"CC(=O)Nc1cc(-c2cnc(N)c(S(=O)(=O)NCC(C)C)c2)ccn1 [Compound I-73, N-[6-amino-5-(isobutylsulfamoyl)-3,4′-bipyridin-2′-yl]acetamide]"

# Same assay, conditions: compound concentration 1.11 μM; read-out: Percent Inhibition
row,inhibition at 1.11 µM [%],Compound
1,> 99,"COc1ccccc1S(=O)(=O)Nc1cc(-c2ccnc(NC(C)=O)c2)cnc1C [Compound I-74, N-(5-{[(2-methoxyphenyl)sulfonyl]amino}-6-methyl-3,4′-bipyridin-2′-yl)acetamide]"
2,> 99,"CC(=O)Nc1cc(-c2cnc(C)c(C(=O)N(C)C)c2)ccn1 [Compound I-75, 2′-acetamido-N,N,6-trimethyl-3,4′-bipyridine-5-carboxamide]"
3,> 99,CC(=O)Nc1cc(-c2cnc(N)c(S(=O)(=O)N(C)Cc3ccccc3)c2)ccn1 [Compound I-76]
4,> 99,"CC(=O)Nc1cc(-c2cnc(N)c(S(=O)(=O)N(C(C)C)C(C)C)c2)ccn1 [Compound I-77, N-[6-amino-5-(diisopropylsulfamoyl)-3,4′-bipyridin-2′-yl]acetamide]"
5,> 99,"CC(=O)Nc1cc(-c2cnc(C)c(NS(=O)(=O)c3cccc4ccccc34)c2)ccn1 [Compound I-78, N-{6-methyl-5-[(1-naphthylsulfonyl)amino]-3,4′-bipyridin-2′-yl}acetamide]"
6,> 99,"CC(=O)Nc1cc(-c2cnc(N)c(C(=O)N3CCN(C)CC3)c2)ccn1 [Compound I-79, N-{6-amino-5-[(4-methylpiperazin-1-yl)carbonyl]-3,4′-bipyridin-2′-yl}acetamide]"
7,> 99,"CC(=O)Nc1cc(-c2cnc(C)c(NS(=O)(=O)c3ccc(C)cc3)c2)ccn1 [Compound I-80, N-(6-methyl-5-{[(4-methylphenyl)sulfonyl]amino}-3,4′-bipyridin-2′-yl)acetamide]"
8,> 99,"CC(=O)Nc1cc(-c2cnc(N)c(C(=O)N3CCC(C)CC3)c2)ccn1 [Compound I-81, N-{6-amino-5-[(4-methylpiperidin-1-yl)carbonyl]-3,4′-bipyridin-2′-yl}acetamide]"
9,> 99,"CC(=O)Nc1cc(-c2cnc(N)c(C(=O)Nc3cccc(F)c3)c2)ccn1 [Compound I-82, 2′-acetamido-6-amino-N-(3-fluorophenyl)-3,4′-bipyridine-5-carboxamide]"
10,82,"CC(=O)Nc1cc(-c2cnc(C)c(N(CC3CC3)S(=O)(=O)C3CC3)c2)ccn1 [Compound I-83, N-{5-[(cyclopropylmethyl)(cyclopropylsulfonyl)amino]-6-methyl-3,4′-bipyridin-2′-yl}acetamide]"
11,> 99,"CC(=O)Nc1cc(-c2cnc(C)c(NS(=O)(=O)c3ccccc3)c2)ccn1 [Compound I-84, N-{6-methyl-5-[(phenylsulfonyl)amino]-3,4′-bipyridin-2′-yl}acetamide]"
12,90,CC(=O)Nc1cc(-c2cnc3[nH]cc(CN(C)C)c3c2)ccn1 [Compound I-85]
13,> 99,"CC(=O)Nc1cc(-c2ccc(S(=O)(=O)Nc3cc(-c4ccnc(NC(C)=O)c4)cnc3C)c(F)c2)ccn1 [Compound I-86, N-(4-{4-[(2′-acetamido-6-methyl-3,4′-bipyridin-5-yl)sulfamoyl]-3-fluorophenyl}pyridin-2-yl)acetamide]"
14,> 99,"CC(=O)Nc1cc(-c2cnc(N)c(S(=O)(=O)N3CCCC3)c2)ccn1 [Compound I-87, N-[6-amino-5-(pyrrolidin-1-ylsulfonyl)-3,4′-bipyridin-2′-yl]acetamide]"
15,> 99,"CC(=O)Nc1cc(-c2cnc(C)c(N3CCCS3(=O)=O)c2)ccn1 [Compound I-88, N-[5-(1,1-dioxidoisothiazolidin-2-yl)-6-methyl-3,4′-bipyridin-2′-yl]acetamide]"
16,> 99,"CNS(=O)(=O)c1cc(-c2ccnc(NC(C)=O)c2)cnc1N [Compound I-89, N-[6-amino-5-(methylsulfamoyl)-3,4′-bipyridin-2′-yl]acetamide]"
17,> 99,"CC(=O)Nc1cc(-c2cnc(C)c(NS(=O)(=O)c3ccc(C(F)(F)F)cc3)c2)ccn1 [Compound I-90, N-[6-methyl-5-({[4-(trifluoromethyl)phenyl]sulfonyl}amino)-3,4′-bipyridin-2′-yl]acetamide]"
18,> 99,"CC(=O)Nc1cc(-c2cnc(N)c(C(=O)Nc3cccnc3)c2)ccn1 [Compound I-91, 2′-acetamido-6-amino-N-(pyridin-3-yl)-3,4′-bipyridine-5-carboxamide]"
19,> 99,"CC(=O)Nc1cc(-c2cnc(C)c(NS(=O)(=O)c3nccn3C)c2)ccn1 [Compound I-92, N-(6-methyl-5-{[(1-methyl-1H-imidazol-2-yl)sulfonyl]amino}-3,4′-bipyridin-2′-yl)acetamide]"
20,86,CC(=O)Nc1cc(-c2cnc3ccn(CC4CC4)c3c2)ccn1 [Compound I-93]
21,98,"CC(=O)Nc1cc(-c2cnc(C)c(NS(=O)(=O)c3ccc(Cl)cc3F)c2)ccn1 [Compound I-94, N-(5-{[(4-chloro-2-fluorophenyl)sulfonyl]amino}-6-methyl-3,4′-bipyridin-2′-yl)acetamide]"

row,inhibition at 1.11 µM [%],Compound
1,> 99,"CC(=O)Nc1cc(-c2cnc(N)c(S(C)(=O)=O)c2)ccn1 [Compound I-95, N-[6-amino-5-(methylsulfonyl)-3,4′-bipyridin-2′-yl]acetamide]"
2,> 99,"CC(=O)Nc1cc(-c2cnc(C)c(N(C)S(C)(=O)=O)c2)ccn1 [Compound I-96, N-{6-methyl-5-[methyl(methylsulfonyl)amino]-3,4′-bipyridin-2′-yl}acetamide]"
3,> 99,"CC(=O)Nc1cc(-c2cnc(N)c(S(=O)(=O)Nc3cccc(Cl)c3)c2)ccn1 [Compound I-97, N-{6-amino-5-[(3-chlorophenyl)sulfamoyl]-3,4′-bipyridin-2′-yl}acetamide]"
4,> 99,"CC(=O)Nc1cc(-c2cnc(N)c(S(=O)(=O)Nc3ccc4ccccc4c3)c2)ccn1 [Compound I-98, N-[6-amino-5-(2-naphthylsulfamoyl)-3,4′-bipyridin-2′-yl]acetamide]"
5,> 99,"CC(=O)Nc1cc(-c2cnc(N)c(S(=O)(=O)Cc3ccc(Cl)cc3)c2)ccn1 [Compound I-99, N-{6-amino-5-[(4-chlorobenzyl)sulfonyl]-3,4′-bipyridin-2′-yl}acetamide]"
6,> 99,"CNc1ncc(-c2ccnc(NC(C)=O)c2)cc1S(=O)(=O)Nc1ccccc1 [Compound I-100, N-[6-(methylamino)-5-(phenylsulfamoyl)-3,4′-bipyridin-2′-yl]acetamide]"
7,> 99,"CC(=O)Nc1cc(-c2cnc(N)c(S(=O)(=O)NC3CCCCC3)c2)ccn1 [Compound I-101, N-[6-amino-5-(cyclohexylsulfamoyl)-3,4′-bipyridin-2′-yl]acetamide]"
8,> 99,"CC(=O)Nc1cc(-c2cncc(NS(=O)(=O)c3ccc(F)cc3F)c2C)ccn1 [Compound I-102, N-(5-{[(2,4-difluorophenyl)sulfonyl]amino}-4-methyl-3,4′-bipyridin-2′-yl)acetamide]"
9,> 99,"CC(=O)Nc1cc(-c2cnc3[nH]cc(S(=O)(=O)N4CCN(C)CC4)c3c2)ccn1 [Compound I-103, N-(4-{3-[(4-methylpiperazin-1-yl)sulfonyl]-1H-pyrrolo[2,3-b]pyridin-5-yl}pyridin-2-yl)acetamide]"
10,> 99,"COc1ncc(-c2ccnc(NC(C)=O)c2)cc1NS(=O)(=O)c1ccc(F)cc1F [Compound I-104, N-(5-{[(2,4-difluorophenyl)sulfonyl]amino}-6-methoxy-3,4′-bipyridin-2′-yl)acetamide]"
11,> 99,"CC(=O)Nc1cc(-c2cnc3cn(S(=O)(=O)C4CC4)nc3c2)ccn1 [Compound I-105, N-{4-[2-(cyclopropylsulfonyl)-2H-pyrazolo[4,3-b]pyridin-6-yl]pyridin-2-yl}acetamide]"
12,64,"CC(=O)Nc1cc(-c2cncc(NC(=O)Cc3ccccc3)c2)ccn1 [Compound I-106, N-(2′-acetamido-3,4′-bipyridin-5-yl)-2-phenylacetamide]"
13,> 99,"COc1ncc(-c2ccnc(NC(C)=O)c2)cc1S(=O)(=O)Nc1ccc(F)cc1F [Compound I-107, N-{5-[(2,4-difluorophenyl)sulfamoyl]-6-methoxy-3,4′-bipyridin-2′-yl}acetamide]"
14,> 99,"CC(=O)Nc1cc(-c2cnc(N)c(S(=O)(=O)NCC3CC3)c2)ccn1 [Compound I-108, N-{6-amino-5-[(cyclopropylmethyl)sulfamoyl]-3,4′-bipyridin-2′-yl}acetamide]"
15,> 99,"CC(=O)Nc1cc(-c2cnc(C)c(NS(=O)(=O)c3ccccc3Cl)c2)ccn1 [Compound I-109, N-(5-{[(2-chlorophenyl)sulfonyl]amino}-6-methyl-3,4′-bipyridin-2′-yl)acetamide]"
16,> 99,"CC(=O)Nc1cc(-c2cnc(N)c(S(=O)(=O)N(C)CC3CC3)c2)ccn1 [Compound I-110, N-{6-amino-5-[(cyclopropylmethyl)(methyl)sulfamoyl]-3,4′-bipyridin-2′-yl}acetamide]"
17,> 99,"CC(=O)Nc1cc(-c2cnc(C)c(NS(=O)(=O)c3cc(Cl)ccc3Cl)c2)ccn1 [Compound I-111, N-(5-{[(2,5-dichlorophenyl)sulfonyl]amino}-6-methyl-3,4′-bipyridin-2′-yl)acetamide]"
18,> 99,"CC(=O)Nc1cc(-c2cnc(N(C)C)c(C(=O)Nc3ccc(F)cc3F)c2)ccn1 [Compound I-112, 2′-acetamido-N-(2,4-difluorophenyl)-6-(dimethylamino)-3,4′-bipyridine-5-carboxamide]"
19,> 99,"CC(=O)Nc1cc(-c2cnc(C)c(NS(=O)(=O)c3ccc(OC(F)(F)F)cc3Cl)c2)ccn1 [Compound I-113, N-[5-({[2-chloro-4-(trifluoromethoxy)phenyl]sulfonyl}amino)-6-methyl-3,4′-bipyridin-2′-yl]acetamide]"
20,> 99,"CC(=O)Nc1cc(-c2cnc(C)c(NS(=O)(=O)C3CC3)c2)ccn1 [Compound I-114, N-{5-[(cyclopropylsulfonyl)amino]-6-methyl-3,4′-bipyridin-2′-yl}acetamide]"
